A value given as a limit tells only on which side of the number the result lay.

In one assay the target is HBV C150Bo protein (mutant C150 HBV capsid protein labeled with BoDIPY-FL) (Hepatitis B virus genotype D subtype adw, UniProt P03147, C107A/C48A/C61A/R150C). Nature of the assay: HBV assembly assay (fluorescence quenching in vitro capsid assembly). In kind it is biochemical. To be noted: HBV assembly assay; read-out: Activity (HBV assembly potency, IC50).
Sequence of HBV C150Bo protein (mutant C150 HBV capsid protein labeled with BoDIPY-FL) (P03147 1-150 C48A/C61A/C107A/R150C): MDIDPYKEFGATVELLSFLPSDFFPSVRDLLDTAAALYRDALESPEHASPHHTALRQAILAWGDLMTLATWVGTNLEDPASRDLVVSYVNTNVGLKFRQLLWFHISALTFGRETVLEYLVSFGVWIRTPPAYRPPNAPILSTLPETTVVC
As for `O=C(Nc1ccc(F)c(Cl)c1)N1CCCN(c2c(Cl)cncc2Cl)CC1Cc1ccccc1` (stereo not shown) [Compound 091], the IC50 was less than 20 µM.
Turning to `CC1CCN(c2c(Cl)cncc2Cl)CCN1C(=O)Nc1ccc(F)c(Cl)c1` (stereo not shown) [Compound 092], the IC50 was less than 20 µM.
On to `CCc1cncc(Cl)c1N1CCCN(C(=O)Nc2ccc(F)c(Cl)c2)CC1` [Compound 107], for which the IC50 is less than 20 µM.
In the case of `CCc1cncc(Cl)c1N1CCCN(C(=O)Nc2cccc(Cl)c2)CC1` [Compound 108], the IC50 is less than 20 µM.
`O=C(Nc1ccc(F)c(Cl)c1)N1CCCN(c2c(Cl)cncc2C2CC2)CC1` [Compound 109]: the IC50 was less than 20 µM.
As to `O=C(Nc1cccc(Cl)c1)N1CCCN(c2c(Cl)cncc2C2CC2)CC1` [Compound 110], the IC50 was less than 20 µM.

The assay is the same for the next values; noted with them: at about 10 μM; 50 mM Hepes pH 7.5, 150 mM NaCl, 1 hour at room temperature.
For `O=C(Nc1ccc(F)c(F)c1)N1CCCN(c2c(Cl)cncc2Cl)CC1` [Compound 004], the “Activity (HBV assembly assay)” value is given as “+ (>50% activity at about 10 μM)”.
Turning to `O=C(Nc1ccc(F)c(Cl)c1)N1CCCN(c2c(Cl)cncc2Cl)CC1` [Compound 005], the “Activity (HBV assembly assay)” value is recorded as “+ (>50% activity at about 10 μM)”.
For `O=C(Nc1cccc(Cl)c1)N1CCCN(c2c(Cl)cncc2Cl)CC1` [Compound 010], the “Activity (HBV assembly assay)” value is on record as “+ (>50% activity at about 10 μM)”.
Regarding `O=C(Nc1cccc(F)c1)N1CCCN(c2c(Cl)cncc2Cl)CC1` [Compound 011], the “Activity (HBV assembly assay)” value is “+ (>50% activity at about 10 μM)”.
With `Cc1cncc(Cl)c1N1CCCN(C(=O)Nc2ccc(F)c(Cl)c2)CC1` [Compound 044], the “Activity (HBV assembly assay)” value is “+ (>50% activity at about 10 μM)”.
As for `O=C(Nc1ccc(F)c(Cl)c1)N1CCCN(c2c(F)cncc2Cl)CC1` [Compound 045], the “Activity (HBV assembly assay)” value is reported as “+ (>50% activity at about 10 μM)”.
The same measure, in the same setting: under `Cc1cncc(C)c1N1CCCN(C(=O)Nc2ccc(F)c(Cl)c2)CC1` [Compound 047] stands “+ (>50% activity at about 10 μM)”; under `O=C(Nc1ccc(F)c(Cl)c1)C1CCCN(c2c(Cl)cncc2Cl)CC1` (stereo not shown) [Compound 055], “+ (>50% activity at about 10 μM)”; under `O=C(Nc1ccc(F)c(F)c1)C1CCCN(c2c(Cl)cncc2Cl)CC1` (stereo not shown) [Compound 056], “+ (>50% activity at about 10 μM)”.
On to `O=C(Nc1ccc(F)c(Cl)c1)N1CCCN(c2c(Cl)cncc2Cl)CC1Cc1ccccc1` (stereo not shown) [Compound 091], for which the “Activity (HBV assembly assay)” value is given as “+ (>50% activity at about 10 μM)”.
With `CC1CCN(c2c(Cl)cncc2Cl)CCN1C(=O)Nc1ccc(F)c(Cl)c1` (stereo not shown) [Compound 092], the “Activity (HBV assembly assay)” value is given as “+ (>50% activity at about 10 μM)”.
Consider `CC1CN(C(=O)Nc2ccc(F)c(Cl)c2)CCN(c2c(Cl)cncc2Cl)C1` (stereo not shown) [Compound 097], for which the “Activity (HBV assembly assay)” value is “+ (>50% activity at about 10 μM)”.
Turning to `COC(=O)C1CN(C(=O)Nc2ccc(F)c(Cl)c2)CCN(c2c(Cl)cncc2Cl)C1` (stereo not shown) [Compound 098], the “Activity (HBV assembly assay)” value is listed as “+ (>50% activity at about 10 μM)”.
Consider `O=C(Nc1ccc(F)c(Cl)c1)N1CCN(c2c(Cl)cncc2Cl)CC(CO)C1` (stereo not shown) [Compound 099], for which the “Activity (HBV assembly assay)” value is “+ (>50% activity at about 10 μM)”.
Same read-out and setting: the entry for `O=C(Nc1ccc(F)c(Cl)c1)N1CCN(c2c(Cl)cncc2Cl)CC(O)C1` (stereo not shown) [Compound 100] is “+ (>50% activity at about 10 μM)”.
For the compound `CCc1cncc(Cl)c1N1CCCN(C(=O)Nc2ccc(F)c(Cl)c2)CC1` [Compound 107], the “Activity (HBV assembly assay)” value is given as “+ (>50% activity at about 10 μM)”.
As to `CCc1cncc(Cl)c1N1CCCN(C(=O)Nc2cccc(Cl)c2)CC1` [Compound 108], the “Activity (HBV assembly assay)” value is reported as “+ (>50% activity at about 10 μM)”.
On to `O=C(Nc1ccc(F)c(Cl)c1)N1CCCN(c2c(Cl)cncc2C2CC2)CC1` [Compound 109], for which the “Activity (HBV assembly assay)” value was “+ (>50% activity at about 10 μM)”.
For the compound `O=C(Nc1cccc(Cl)c1)N1CCCN(c2c(Cl)cncc2C2CC2)CC1` [Compound 110], the “Activity (HBV assembly assay)” value is given as “+ (>50% activity at about 10 μM)”.
Turning to `O=C(Nc1ccc(F)c(F)c1)N1C2CCC1CN(c1c(Cl)cncc1Cl)CC2` (stereo not shown) [Compound 120], the “Activity (HBV assembly assay)” value is “+ (>50% activity at about 10 μM)”.

The test system of another assay is HBV replication in HepG2-2.2.15 cells. The assay can be described thus: Dot-blot assay: inhibition of HBV replication in HBV-producing hepatoma cell line. It is filed as cell-based. To be noted: Hepatitis B virus, 144 h, six days, reduction in HBV DNA levels. The method, then:
Compounds active in the HBV assembly assay are tested for their activity and toxicity in cellular assay. In the first anti-viral assay, the ability of compounds to inhibit HBV replication in an HBV-producing hepatoma cell line using the dot-blot method is evaluated.
Briefly, confluent monolayers of HepG2-2.2.15 cells are incubated with complete medium containing various concentrations of a test compound. Three days later, the culture medium is replaced with fresh medium containing the appropriately diluted test compound. Six days following the initial administration of the test compound, the cell culture supernatant is collected, and cell lysis is performed. The samples are applied onto Nylos membranes and DNA is immobilized to the membrane by UV cross-linking. After pre-hybridization, the HBV probe is added and the hybridization is performed overnight. The membranes are exposed to the Kodak films; antiviral activity is calculated from the reduction in HBV DNA levels (EC50). The EC50 for antiviral activity is calculated from the dose response curves of active compounds. Assay performance over time is monitored by the use of the standard positive control compounds ETV, BAY 41-4109, and HAP-1.
In the first anti-viral assay, the ability of compounds to inhibit HBV replication in an HBV-producing hepatoma cell line using the dot-blot method was evaluated.
Confluent monolayers of HepG2-2.2.15 cells were incubated with complete medium containing various concentrations of a test compound. Three days later, the culture medium was replaced with fresh medium containing the appropriately diluted test compound. Six days following the initial administration of the test compound, the cell culture supernatant was collected, and cell lysis was performed. The samples were applied onto Nylos membranes and DNA was immobilized to the membrane by UV cross-linking. After pre-hybridization, the HBV probe was added and the hybridization was performed overnight. The membranes were exposed to the Kodak films; antiviral activity was calculated from the reduction in HBV DNA levels (EC50). The EC50 for antiviral activity was calculated from the dose response curves of active compounds. Assay performance over time was monitored by the use of the standard positive control compounds ETV, BAY 41-4109, and HAP-1.
On to `O=C(Nc1cccc(Cl)c1)N1CCCN(c2c(Cl)cncc2Cl)CC1` [Compound 010], for which the inhibition at 10 µM is more than 50%.
For the compound `O=C(Nc1cccc(F)c1)N1CCCN(c2c(Cl)cncc2Cl)CC1` [Compound 011], the inhibition at 10 µM was more than 50%.
Still for that read-out and setting: under `O=C(Nc1cc(F)c(F)c(F)c1)N1CCCN(c2c(Cl)cncc2Cl)CC1` [Compound 025] stands more than 50%; under `O=C(Nc1ccc(F)c(Cl)c1)N1CCCN(c2c(Cl)cncc2Cl)CC1` [Compound 040], more than 50%.
Same read-out and setting: under `O=C(Nc1ccc(F)c(Cl)c1)N1CCCN(c2ccnc(Cl)c2Cl)CC1` [Compound 041] stands more than 50%; under `Cc1cncc(Cl)c1N1CCCN(C(=O)Nc2ccc(F)c(Cl)c2)CC1` [Compound 044], more than 50%; under `O=C(Nc1ccc(F)c(Cl)c1)N1CCCN(c2c(F)cncc2Cl)CC1` [Compound 045], more than 50%.
Consider `Cc1cncc(C)c1N1CCCN(C(=O)Nc2ccc(F)c(Cl)c2)CC1` [Compound 047], for which the inhibition at 10 µM is more than 50%.
For `O=C(Nc1ccc(Cl)c(F)c1)N1CCCN(c2c(Cl)cncc2Cl)CC1` [Compound 049], the inhibition at 10 µM is more than 50%.
Regarding `O=C(Nc1ccc(F)c(F)c1)C1CCCN(c2c(Cl)cncc2Cl)CC1` (stereo not shown) [Compound 056], the inhibition at 10 µM is more than 50%.
Same read-out and setting: the figure for `O=C(Nc1ccc(F)c(Cl)c1)N1CC2CC(C1)N(c1c(Cl)cncc1Cl)C2` (stereo not shown) [Compound 065] is more than 50%; for `O=C(Nc1ccc(F)c(Cl)c1)N1CC2CC1CCN2c1c(Cl)cncc1Cl` (stereo not shown) [Compound 077] it is more than 50%.
Consider `CC1CN(c2c(Cl)cncc2Cl)CCCN1C(=O)Nc1ccc(F)c(Cl)c1` (stereo not shown) [Compound 087], for which the inhibition at 10 µM was more than 50%.
As to `CC1CCN(c2c(Cl)cncc2Cl)CCN1C(=O)Nc1ccc(F)c(Cl)c1` (stereo not shown) [Compound 092], the inhibition at 10 µM is more than 50%.
`CC1CN(C(=O)Nc2ccc(F)c(Cl)c2)CCN(c2c(Cl)cncc2Cl)C1` (stereo not shown) [Compound 097]: the inhibition at 10 µM is more than 50%.
With `O=C(Nc1ccc(F)c(Cl)c1)N1CCN(c2c(Cl)cncc2Cl)CC(CO)C1` (stereo not shown) [Compound 099], the inhibition at 10 µM was more than 50%.
Same read-out and setting: under `O=C(Nc1ccc(F)c(Cl)c1)N1CCN(c2c(Cl)cncc2Cl)CC(O)C1` (stereo not shown) [Compound 100] stands more than 50%; under `CCc1cncc(Cl)c1N1CCCN(C(=O)Nc2ccc(F)c(Cl)c2)CC1` [Compound 107], more than 50%.
In turn, `O=C(Nc1ccc(F)c(Cl)c1)N1CCCN(c2c(Cl)cncc2C2CC2)CC1` [Compound 109] returned an inhibition at 10 µM of more than 50%.
Same read-out and setting: under `O=C(Nc1ccc(F)c(Cl)c1)N1CCCN(c2c(Cl)cncc2Cc2ccccc2)CC1` [Compound 115] stands more than 50%; under `O=C(Nc1ccc(F)c(F)c1)N1C2CCC1CN(c1c(Cl)cncc1Cl)CC2` (stereo not shown) [Compound 120], more than 50%.
The compound `O=C(Nc1ccc(F)c(Cl)c1)N1C2CCC1CN(c1c(Cl)cncc1Cl)CC2` (stereo not shown) [Compound 121] had an inhibition at 10 µM of more than 50%.
In turn, `O=C(Nc1ccc(F)c(Cl)c1)N1CCCN(c2c(Cl)cncc2CO)CC1` [Compound 126] gave an inhibition at 10 µM of more than 50%.
Compound `COCCc1cncc(Cl)c1N1CCCN(C(=O)Nc2ccc(F)c(Cl)c2)CC1` [Compound 129] showed an inhibition at 10 µM of more than 50%.
Compound `COC1CN(C(=O)Nc2ccc(F)c(Cl)c2)CCN(c2c(Cl)cncc2Cl)C1` (stereo not shown) [Compound 130] had an inhibition at 10 µM of more than 50%.
The compound `CCOC1CN(C(=O)Nc2ccc(F)c(Cl)c2)CCN(c2c(Cl)cncc2Cl)C1` (stereo not shown) [Compound 131] showed an inhibition at 10 µM of more than 50%.

Source of the values: US9758489B2, “Azepane derivatives and methods of treating hepatitis B infections” (Novira Therapeutics, Inc., priority 2013, dated 2017).
